# From ChEMBL document CHEMBL1154815, “3D QSAR studies on ketoamides of human cathepsin K inhibitors based on two different alignment methods” (Eur J Med Chem, 2010)
# Target: T1, Cathepsin K (Homo sapiens, UniProt P43235)
# T1 sequence (P43235 whole entry): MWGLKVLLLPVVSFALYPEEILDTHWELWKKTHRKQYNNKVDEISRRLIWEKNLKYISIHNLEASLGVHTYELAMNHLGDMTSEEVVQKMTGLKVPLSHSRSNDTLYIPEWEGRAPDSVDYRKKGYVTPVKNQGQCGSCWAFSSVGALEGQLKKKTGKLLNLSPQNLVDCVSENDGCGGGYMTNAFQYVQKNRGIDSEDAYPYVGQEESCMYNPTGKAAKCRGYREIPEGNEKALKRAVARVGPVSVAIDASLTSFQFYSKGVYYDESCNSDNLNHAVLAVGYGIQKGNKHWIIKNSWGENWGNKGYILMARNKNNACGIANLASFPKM
# Experiment: Inhibition of human cathepsin K
SMILES,IC50 [nM],pIC50
CCCC[C@H](NC(=O)O[C@@H]1CN(C(=O)c2c(C)noc2C)CC1(C)C)C(=O)C(=O)N[C@H](C)c1ccccc1,15.1,–
CCCC[C@H](NC(=O)O[C@@H]1CN(C(=O)NCCc2ccccc2)CC1(C)C)C(=O)C(=O)N[C@H](C)c1ccccc1,6.61,–
CCCC[C@H](NC(=O)O[C@@H]1CN(C(=O)Oc2ccc(-c3ccccc3)cc2)CC1(C)C)C(=O)C(=O)N[C@H](C)c1ccccc1,5.01,–
CCCC[C@H](NC(=O)O[C@@H]1CN(C(=O)OCCc2ccccc2)CC1(C)C)C(=O)C(=O)N[C@H](C)c1ccccc1,32.4,–
CCCC[C@H](NC(=O)O[C@@H]1CN(C(=O)c2ccno2)CC1(C)C)C(=O)C(=O)N[C@H](C)c1ccccc1,8.91,–
CCCC[C@H](NC(=O)O[C@@H]1CN(C(=O)c2ccccc2)CC1(C)C)C(=O)C(=O)N[C@H](C)c1ccccc1,64.6,–
CCCC[C@H](NC(=O)O[C@@H]1CN(C(=O)Oc2ccccc2)CC1(C)C)C(=O)C(=O)N[C@H](C)c1ccccc1,28.8,–
CCCC[C@H](NC(=O)O[C@@H]1CN(C(=O)CCCc2ccccc2)CC1(C)C)C(=O)C(=O)N[C@H](C)c1ccccc1,26.9,–
CCCC[C@H](NC(=O)O[C@@H]1CN(S(=O)(=O)c2ccccc2)CC1(C)C)C(=O)C(=O)N[C@H](C)c1ccccc1,8.32,–
CCCC[C@H](NC(=O)O[C@H](Cn1cc(-c2ccc(C(F)(F)F)cc2)cn1)C(C)(C)C)C(=O)C(=O)Nc1ccn[nH]1,0.0257,–
CCCC[C@H](NC(=O)O[C@H](Cc1nnc(-c2ccc(F)cc2)o1)C(C)(C)C)C(=O)C(=O)N[C@H]1CCCNC1=O,0.646,–
CCCC[C@H](NC(=O)O[C@@H]1CN(C(=O)c2cccnc2)CC1(C)C)C(=O)C(=O)N[C@H](C)c1ccccc1,14.1,–
CCCC[C@H](NC(=O)O[C@@H]1CN(C(=O)c2ccc(-c3ccccc3)cc2)CC1(C)C)C(=O)C(=O)N[C@H](C)c1ccccc1,6.92,–
CCCC[C@H](NC(=O)O[C@@H](Cc1nnc(-c2ccccc2)o1)C(C)C)C(=O)C(=O)N[C@H](C)c1ccccc1,0.832,–
CCCC[C@H](NC(=O)O[C@@H]1CN(C(=O)Nc2ccccc2)CC1(C)C)C(=O)C(=O)N[C@H](C)c1ccccc1,4.27,–
CCCC[C@H](NC(=O)O[C@@H]1CN(S(=O)(=O)Cc2ccccc2)CC1(C)C)C(=O)C(=O)N[C@H](C)c1ccccc1,17,–
CCCC[C@H](NC(=O)O[C@@H]1CN(C(=O)c2ccc3cc[nH]c3c2)CC1(C)C)C(=O)C(=O)N[C@H](C)c1ccccc1,1.7,–
CCCC[C@H](NC(=O)O[C@@H]1CN(Cc2ccccc2)CC1(C)C)C(=O)C(=O)N[C@H](C)c1ccccc1,20.9,–
CCCC[C@H](NC(=O)O[C@@H]1CN(C(=O)c2ccc3ccccc3c2)CC1(C)C)C(=O)C(=O)N[C@H](C)c1ccccc1,1.58,–
CCCC[C@H](NC(=O)O[C@@H]1CN(C(=O)c2cc3ccccc3s2)CC1(C)C)C(=O)C(=O)N[C@H](C)c1ccccc1,2.82,–
CCCC[C@H](NC(=O)O[C@@H]1CN(C(=O)Oc2ccc3ccccc3c2)CC1(C)C)C(=O)C(=O)N[C@H](C)c1ccccc1,57.5,–
CCCC[C@H](NC(=O)O[C@@H]1CN(C(=O)c2ccc(C(F)(F)F)cc2)CC1(C)C)C(=O)C(=O)Nc1cc[nH]n1,0.417,–
CCCC[C@H](NC(=O)O[C@@H]1CN(C(=O)NCc2ccccc2)CC1(C)C)C(=O)C(=O)N[C@H](C)c1ccccc1,3.8,–
CCCC[C@H](NC(=O)O[C@@H]1CN(C(=O)Cc2ccccc2)CC1(C)C)C(=O)C(=O)N[C@H](C)c1ccccc1,3.02,–
CCCC[C@H](NC(=O)O[C@H](Cn1cnc(-c2ccc(C(F)(F)F)cc2)c1)C(C)(C)C)C(=O)C(=O)Nc1ccn[nH]1,–,10.6
CCCC[C@H](NC(=O)O[C@@H]1CN(C(=O)OCc2ccc(-c3ccccc3)cc2)CC1(C)C)C(=O)C(=O)N[C@H](C)c1ccccc1,2.09,–
